Structures are written as SMILES. Where a SMILES comes first, the peptide text is derived from it. [ ]: non-standard residue; d: D form. The star is where a group is joined. NHCH2CH2OH = OCCN*; For = O=C*

The values below come from publication PMC7531004, “Discovery of gramicidin A analogues with altered activities by multidimensional screening of a one-bead-one-compound library” (Nature Communications, 2020).

A short description of data set [1]: H+/Na+ transport assay of bead-derived peptides (one-point).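 Also: relative to parent gramicidin A activity set to 1.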 The format is biochemical. Set-up: key: relative activity; mean of two control wells = 1.00. The conditions noted are these: bead-derived peptide solution, EYPC/EYPG LUVs. On the procedure:
(§1) Each type of assay must be simplified and miniaturized to assess the activities of the library peptides in a 96-well format for the high-throughput screening.
H+/Na+ transport assay of bead-derived peptides.1,2,3 Trisodium 8-hydroxypyrene-1,3,6-trisulfonate
mini-extruder apparatus (Avanti Polar Lipids).
28.9 µmol) in CHCl3 (225 µL) and egg yolk phosphatidylglycerol (1.20 mg, 1.56 µmol) in CHCl3 (60.0 µL)
The thin film was hydrated and
1.0 mM pyranine) by sonication.
A suspension of the LUVs was immediately
used for the H+/Na+ transport assay.
The diluted solution of peptide
flat-bottom 96-well plate (655086, Greiner bio-one).
was vortexed at room temperature for 30 min.
(5/95, 3.0 µL) and the LUV suspension were mixed in each plate to determine 100% lysis. The untreated
LUV suspension was used to determine 0% lysis.
normalized against 100% lysis by Triton X-100 (Imax) and 0% lysis (I0) as following, where Ix is the
fluorescence intensity (Supplementary Equation 2).
I = 100 × (Ix – I0) / (Imax – I0) (2)
The mean value of the two control wells was set to 1.00. […]

For data set [2], the system named is P388 mouse leukemia cells. Particulars: 92 h. The source says:
Each type of assay must be simplified and miniaturized to assess the activities of the library peptides in a 96-well format for the high-throughput screening. […]
Mammalian cytotoxicity assay of bead-derived peptides . P388 cells were obtained from Institute of
Development Aging and Cancer (Tohoku University). The cells were maintained with growth medium
[RPMI1640 with phenol red ( Fujifilm Wako Pure Chemical) supplemented with 10% heat -inactivated fetal
bovine serum, pe nicillin G (100 units/mL), and streptomycin (100 µg/mL)] under atmosphere of 5% CO 2 at
The collected cells were resuspended into
the growth medium at 2 × 10^4 cells/mL. The stock solutions of the peptide library were 250-fold diluted
with the growth medium. Aliquots of the medium (100 µL) containing peptides and the latter medium
containing P388 cells (100 µL) were mixed in a 96-well cell culture plate (TR5003, TrueLine). The final
concentration of P388 cells was 1 × 10^4 cells/mL. After incubation under atmosphere of 5% CO2 at 37 °C
for 92 h, the numbers of viable cells were determined by
2-(4-iodophenyl)-3-(4-nitrophenyl)-5-(2,4-disulfophenyl)-2H-tetrazolium, monosodium salt (WST-1) assay.
A solution of 1-methoxy-5-methylphenazinium methyl sulfate (1-methoxy PMS) and WST-1 in the growth
medium (1-methoxy PMS 0.70 mg/mL in Milli-Q/WST-1 3.6 mg/mL in pH 7.4 HEPES buffer = 1/9) was
added to each well of the plate (10.0 µL/well). The plate was incubated for 4 h under atmosphere of 5% CO2
at 37 °C. The absorbance of each well at 415 nm was measured using a Benchmark microplate reader
(Bio-Rad). The cytotoxicities were evaluated as cell viability (%). […]

Data set [3] deals with Streptococcus pyogenes SSI-9. As to the kind of experiment: Antibacterial activity assay of bead-derived peptides (three concentrations). The format is cell-based. Set-up: key: +++: inhibition by the 640-fold diluted peptide solution; ++: inhibition by the 160-fold diluted solution; +: inhibition by the 40-fold diluted solution; -: no inhibition. The conditions noted are these: S. pyogenes, bead-derived peptide solution, three concentrations. On the procedure: as §1
Next, the peptides in groups A and B were subjected to the antibacterial assay and structural determination. Three peptide concentrations were applied to evaluate the growth inhibition of S. pyogenes and determine the antibacterial activity. […] Finally, the structures of the peptides were determined. […]
Antibacterial activity assay of bead-derived peptides. The stock solution of the peptide library was 4- and […]
16-fold diluted with DMSO. The non-diluted stock solution, 4-fold diluted solution, and 16-fold diluted […]
solution were transferred to the 96-well round-bottom plate (3367, Corning, 1.0 µL/well). To the solution of […]
peptide in each well was added a suspension of Streptococcus pyogenes SSI-9 strain in cation adjusted […]
Mueller Hinton Broth [40.0 µL, 2 × 10^5 colony forming units (CFU), 21 g/L Mueller Hinton Broth (Difco), 50 […]
mg/L Ca2+ (adjusted with CaCl2•2H2O), and 25 mg/L Mg2+ (adjusted with MgCl2•6H2O)] supplemented with […]
5% laked horse blood (Nippon Biotest Laboratories). The plate was incubated at 37 °C for 18 h, and the precipitation of the grown cells was examined. […]

For `CC(C)C[C@@H](NC(=O)[C@H](Cc1c[nH]c2ccccc12)NC(=O)[C@@H](CC(C)C)NC(=O)[C@@H](NC(=O)[C@H](NC(=O)[C@H](C)NC(=O)[C@H](NC(=O)[C@H](C)NC(=O)CNC(=O)[C@@H](NC=O)C(C)C)[C@H](C)O)C(C)C)C(C)C)C(=O)N[C@@H](Cc1c[nH]c2ccccc12)C(=O)N[C@H](CC(C)C)C(=O)N[C@@H](Cc1c[nH]c2ccccc12)C(=O)N[C@@H](C(=O)N[C@@H](Cc1c[nH]c2ccccc12)C(=O)NCCO)C(C)C` [compound 94] (For-VGA[dT]A[dV]V[dL]W[dL]W[dL]W[dV]W-NHCH2CH2OH), the “H+/Na+ transport activity normalized against the value of 1 (1.00)” value (shortened to “H+/Na+ transport activity normalized”) in data set [1] was 1.16. The cell viability/% in data set [2] was 100.0%. Besides, the antibacterial activity entry in data set [3] is “-”.
For `CC(C)C[C@@H](NC(=O)[C@H](Cc1c[nH]c2ccccc12)NC(=O)[C@H](NC(=O)[C@H](Cc1c[nH]c2ccccc12)NC(=O)[C@H](NC(=O)[C@H](Cc1c[nH]c2ccccc12)NC(=O)[C@@H](CC(C)C)NC(=O)[C@@H](NC(=O)[C@H](NC(=O)[C@H](C)NC(=O)[C@H](NC(=O)[C@H](C)NC(=O)CNC(=O)[C@@H](NC=O)C(C)C)C(C)C)C(C)C)C(C)C)C(C)C)C(C)C)C(=O)N[C@@H](Cc1c[nH]c2ccccc12)C(=O)NCCO` [compound 97] (For-VGA[dV]A[dV]V[dL]W[dV]W[dV]W[dL]W-NHCH2CH2OH), the “H+/Na+ transport activity normalized” value in data set [1] worked out at 1.24. In data set [2], this molecule yielded a cell viability/% of 59.7%. Also, the antibacterial activity entry in data set [3] is “+”.
The like results for `CNC(=O)C[C@@H](NC(=O)[C@@H](NC(=O)[C@@H](CC(C)C)NC(=O)[C@H](C)NC(=O)[C@@H](CC(C)C)NC(=O)[C@H](C)NC(=O)CNC(=O)[C@@H](NC=O)C(C)C)C(C)C)C(=O)N[C@@H](Cc1c[nH]c2ccccc12)C(=O)N[C@H](CC(C)C)C(=O)N[C@@H](Cc1c[nH]c2ccccc12)C(=O)N[C@@H](C(=O)N[C@@H](Cc1c[nH]c2ccccc12)C(=O)N[C@H](CC(C)C)C(=O)N[C@@H](Cc1c[nH]c2ccccc12)C(=O)NCCO)C(C)C` [compound 173] (For-VGA[dL]A[dL]V[dD](NHMe)W[dL]W[dV]W[dL]W-NHCH2CH2OH) were, in that order, 1.07, 100.0% and “-”.
Turning to `CC(C)C[C@@H](NC(=O)[C@H](Cc1c[nH]c2ccccc12)NC(=O)[C@H](NC(=O)[C@H](Cc1c[nH]c2ccccc12)NC(=O)[C@@H](CC(C)C)NC(=O)[C@@H](NC(=O)[C@H](NC(=O)[C@H](C)NC(=O)[C@H](NC(=O)[C@H](C)NC(=O)CNC(=O)[C@@H](NC=O)C(C)C)[C@H](C)O)C(C)C)C(C)C)C(C)C)C(=O)N[C@@H](Cc1c[nH]c2ccccc12)C(=O)N[C@@H](C(=O)N[C@@H](Cc1c[nH]c2ccccc12)C(=O)NCCO)C(C)C` [compound 182] (For-VGA[dT]A[dV]V[dL]W[dV]W[dL]W[dV]W-NHCH2CH2OH), the “H+/Na+ transport activity normalized” value in data set [1] was found to be 1.16. In data set [2], the cell viability/% is reported as 100.0%. The antibacterial activity result in data set [3] is on record as “-”.
The like results for `CNC(=O)C[C@@H](NC(=O)[C@@H](NC(=O)[C@H](NC(=O)[C@H](C)NC(=O)[C@H](NC(=O)[C@H](C)NC(=O)CNC(=O)[C@@H](NC=O)C(C)C)C(C)C)C(C)C)C(C)C)C(=O)N[C@@H](Cc1c[nH]c2ccccc12)C(=O)N[C@H](CC(C)C)C(=O)N[C@@H](Cc1c[nH]c2ccccc12)C(=O)N[C@H](CC(C)C)C(=O)N[C@@H](Cc1c[nH]c2ccccc12)C(=O)N[C@@H](C(=O)N[C@@H](Cc1c[nH]c2ccccc12)C(=O)NCCO)C(C)C` [compound 231] (For-VGA[dV]A[dV]V[dD](NHMe)W[dL]W[dL]W[dV]W-NHCH2CH2OH) were, in that order, 1.14, 100.0% and “-”.
Turning to `CC(C)C[C@@H](NC(=O)[C@H](C)NC(=O)[C@H](NC(=O)[C@H](C)NC(=O)CNC(=O)[C@@H](NC=O)C(C)C)[C@H](C)O)C(=O)N[C@H](C(=O)N[C@H](CC(C)C)C(=O)N[C@@H](Cc1c[nH]c2ccccc12)C(=O)N[C@@H](C(=O)N[C@@H](Cc1c[nH]c2ccccc12)C(=O)N[C@H](CC(C)C)C(=O)N[C@@H](Cc1c[nH]c2ccccc12)C(=O)N[C@@H](C(=O)N[C@@H](Cc1c[nH]c2ccccc12)C(=O)NCCO)C(C)C)[C@H](C)O)C(C)C` [compound 367] (For-VGA[dT]A[dL]V[dL]W[dT]W[dL]W[dV]W-NHCH2CH2OH), in data set [1], the “H+/Na+ transport activity normalized” value was found to be 1.24. Also, the cell viability/% in data set [2] turned out to be 100.0%. Moreover, the antibacterial activity entry in data set [3] was “-”.
Taken in the same sequence, the figures for `CC(C)C[C@@H](NC(=O)[C@H](Cc1c[nH]c2ccccc12)NC(=O)[C@H](NC(=O)[C@H](Cc1c[nH]c2ccccc12)NC(=O)[C@H](NC(=O)[C@H](Cc1c[nH]c2ccccc12)NC(=O)[C@H](NC(=O)[C@@H](NC(=O)[C@H](NC(=O)[C@H](C)NC(=O)[C@H](NC(=O)[C@H](C)NC(=O)CNC(=O)[C@@H](NC=O)C(C)C)C(C)C)[C@H](C)O)C(C)C)C(C)C)C(C)C)C(C)C)C(=O)N[C@@H](Cc1c[nH]c2ccccc12)C(=O)NCCO` [compound 379] (For-VGA[dV]A[dT]V[dV]W[dV]W[dV]W[dL]W-NHCH2CH2OH) were 1.19, 100.0% and “-”.
For `CC(C)C[C@@H](NC(=O)[C@H](Cc1c[nH]c2ccccc12)NC(=O)[C@H](NC(=O)[C@H](Cc1c[nH]c2ccccc12)NC(=O)[C@H](NC(=O)[C@H](Cc1c[nH]c2ccccc12)NC(=O)[C@@H](CC(C)C)NC(=O)[C@@H](NC(=O)[C@H](NC(=O)[C@H](C)NC(=O)[C@H](NC(=O)[C@H](C)NC(=O)CNC(=O)[C@@H](NC=O)C(C)C)C(C)C)C(C)C)C(C)C)C(C)C)C(C)C)C(=O)N[C@@H](Cc1c[nH]c2ccccc12)C(=O)NCCO` [compound 448] (For-VGA[dV]A[dV]V[dL]W[dV]W[dV]W[dL]W-NHCH2CH2OH), the “H+/Na+ transport activity normalized” value in data set [1] stood at 1.07. This molecule came in with a cell viability/% in data set [2] of 34.1%. The antibacterial activity entry in data set [3] is “+”.
Taken in the same sequence, the figures for `CC(C)C[C@@H](NC(=O)[C@H](Cc1c[nH]c2ccccc12)NC(=O)[C@H](NC(=O)[C@H](Cc1c[nH]c2ccccc12)NC(=O)[C@@H](CC(C)C)NC(=O)[C@H](Cc1c[nH]c2ccccc12)NC(=O)[C@@H](CC(C)C)NC(=O)[C@@H](NC(=O)[C@H](NC(=O)[C@H](C)NC(=O)[C@H](NC(=O)[C@H](C)NC(=O)CNC(=O)[C@@H](NC=O)C(C)C)C(C)C)C(C)C)C(C)C)[C@H](C)O)C(=O)N[C@@H](Cc1c[nH]c2ccccc12)C(=O)NCCO` [compound 457] (For-VGA[dV]A[dV]V[dL]W[dL]W[dT]W[dL]W-NHCH2CH2OH) were 1.08, 95.8% and “+”.
